Assay results from patent publication US9579319B2 (Redx Pharma PLC, priority 2013, dated 2017).
In brackets after ≈: the same amount, converted by molar mass. Like-named read-outs stand apart in the source and are kept apart here.

Experiments:
[1] = tested on: Hedgehog signalling pathway; experiment: Gli-reporter NIH3T3 luciferase assay (Hedgehog pathway inhibition); assay type: cell-based; conditions: NIH3T3, Gli-reporter NIH-3T3 cells, recombinant mouse sonic hedgehog, 24 hours, luminescence
Summary of the method: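 Mouse NIH3T3 cells with Gli-responsive luciferase reporter, pre-treated 1 h with compound (top final concentration 1 μM, 0.1% DMSO) in 0.5% calf serum medium. Then stimulated with recombinant mouse sonic hedgehog for 24 h at 37° C. Luminescence read-out (OneGLO), triplicates; IC50 reported.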

[2] = Thermodynamic solubility with filtration; assay type: physicochemical; conditions: aqueous buffer, thermodynamic from solid, pH 7.4 phosphate buffer (0.1 M), room temperature, filtered
Description: Thermodynamic Solubility with Filtration
0.5 mg is weighed into a Mini Uniprep filter vial (Whatman, PVDF, 0.2 μm). 0.5 mL of pH 7.4 phosphate buffer (0.1 M) is dispensed and the vial is shaken at 600 rpm for 24 h at room temperature. At the end of this period, the solution is then filtered and an aliquot of the filtrate is used to create a tenfold dilution. Standards are prepared by serially diluting a 1250 μg/mL DMSO stock solution of the compound to 125 and 2.5 μg/mL, in Acetonitrile/Water (50:50, v/v). The concentration of the filtrate and tenfold dilution is measured by detection against the two calibration standards.

| IC50 ([1]; read-out: Gli luc IC50) | solubility at 24 h [2] | IC50 ([1]; read-out: Gli Luc nM (IC50)) | Compound |
| --- | --- | --- | --- |
| 10 to 200 nM | 1010 µg/mL (≈ 2180 µM) |  | Cc1nc(CN(C)C2CCN(c3nnc(-c4ccnn4C)c(C)c3C)CC2)c(C(F)(F)F)o1 [Example 97, 1-[4,5-dimethyl-6-(2-methylpyrazol-3-yl)pyridazin-3-yl]-N-methyl-N-[[2-methyl-5-(trifluoromethyl)oxazol-4-yl]methyl]piperidin-4-amine] |
| 10 to 200 nM | 106 µg/mL (≈ 218 µM) |  | Cc1nc(CN(C)C2CCN(c3nnc(-c4ccnn4C)c4ccccc34)CC2)c(C(F)(F)F)o1 [Example 98, N-methyl-1-[4-(2-methylpyrazol-3-yl)phthalazin-1-yl]-N-[[2-methyl-5-(trifluoromethyl)oxazol-4-yl]methyl]piperidin-4-amine] |
| < 10 nM | 399 µg/mL (≈ 755 µM) | 1.26 nM | CN(C(=O)Nc1ccc(F)cc1C(F)(F)F)C1CCN(c2nnc(-c3ccnn3C)c3ccncc23)CC1 [Example 112, 3-[4-fluoro-2-(trifluoromethyl)phenyl]-1-methyl-1-[1-[1-(2-methylpyrazol-3-yl)pyrido[3,4-d]pyridazin-4-yl]-4-piperidyl]urea] |
| 10 to 200 nM | 1260 µg/mL (≈ 3270 µM) |  | Cc1c(-c2ccnn2C)nnc(N2CCC(NC(=O)NC(C)(C)C)CC2)c1C [Example 116, 1-tert-butyl-3-[1-[4,5-dimethyl-6-(2-methylpyrazol-3-yl)pyridazin-3-yl]-4-piperidyl]urea] |
| < 10 nM | 321 µg/mL (≈ 687 µM) |  | Cn1nccc1-c1nnc(N2CCC(NCc3cnccc3C(F)(F)F)CC2)c2ccccc12 [Example 156, 1-[4-(2-methylpyrazol-3-yl)phthalazin-1-yl]-N-[[4-(trifluoromethyl)-3-pyridyl]methyl]piperidin-4-amine] |
| < 10 nM |  |  | Cn1nccc1-c1nnc(N2CCC(NC(=O)Nc3ccc(OC(F)(F)F)cc3)CC2)c2ccccc12 [Example 167, 1-[1-[4-(2-methylpyrazol-3-yl)phthalazin-1-yl]-4-piperidyl]-3-[4-(trifluoromethoxy)phenyl]urea] |
| 10 to 200 nM |  |  | CN(Cc1cccc(C#N)c1)C1CCN(c2nnc(-c3ccnn3C)c3ccccc23)CC1 [Example 168, 3-[[methyl-[1-[4-(2-methylpyrazol-3-yl)phthalazin-1-yl]-4-piperidyl]amino]methyl]benzonitrile] |
| < 10 nM |  |  | CN(C(=O)Nc1ccc(F)cc1F)C1CCN(c2nnc(-c3ccnn3C)c3ccccc23)CC1 [Example 169, 3-(2,4-difluorophenyl)-1-methyl-1-[1-[4-(2-methylpyrazol-3-yl)phthalazin-1-yl]-4-piperidyl]urea] |
| 10 to 200 nM | 1190 µg/mL (≈ 2890 µM) |  | Cc1ccccc1CNC1CCN(c2nnc(-c3ccnn3C)c3ccccc23)CC1 [Example 170, 1-[4-(2-methylpyrazol-3-yl)phthalazin-1-yl]-N-(o-tolylmethyl)piperidin-4-amine] |
| > 1000 nM |  |  | Cc1c(-c2ccnn2C)nnc(N2CCC(N(C)Cc3ccncn3)CC2)c1C [Example 171, 1-[4,5-dimethyl-6-(2-methylpyrazol-3-yl)pyridazin-3-yl]-N-methyl-N-(pyrimidin-4-ylmethyl)piperidin-4-amine] |
| > 1000 nM |  |  | COc1cc(-c2nnc(N3CCC(NS(=O)(=O)c4ccc(F)cc4C(F)(F)F)CC3)c(C)c2C)ccn1 [Example 172, 4-fluoro-N-[1-[6-(2-methoxy-4-pyridyl)-4,5-dimethyl-pyridazin-3-yl]-4-piperidyl]-2-(trifluoromethyl)benzenesulfonamide] |
